Target: T1, KCNT1 (KNa1.1, Slack) (Homo sapiens, UniProt Q5JUK3)
T1 construct: expressed in transfected cells; host or cells: HEK-TREX (tetracycline-inducible HEK cell line)
T1 sequence (Q5JUK3 1-1230): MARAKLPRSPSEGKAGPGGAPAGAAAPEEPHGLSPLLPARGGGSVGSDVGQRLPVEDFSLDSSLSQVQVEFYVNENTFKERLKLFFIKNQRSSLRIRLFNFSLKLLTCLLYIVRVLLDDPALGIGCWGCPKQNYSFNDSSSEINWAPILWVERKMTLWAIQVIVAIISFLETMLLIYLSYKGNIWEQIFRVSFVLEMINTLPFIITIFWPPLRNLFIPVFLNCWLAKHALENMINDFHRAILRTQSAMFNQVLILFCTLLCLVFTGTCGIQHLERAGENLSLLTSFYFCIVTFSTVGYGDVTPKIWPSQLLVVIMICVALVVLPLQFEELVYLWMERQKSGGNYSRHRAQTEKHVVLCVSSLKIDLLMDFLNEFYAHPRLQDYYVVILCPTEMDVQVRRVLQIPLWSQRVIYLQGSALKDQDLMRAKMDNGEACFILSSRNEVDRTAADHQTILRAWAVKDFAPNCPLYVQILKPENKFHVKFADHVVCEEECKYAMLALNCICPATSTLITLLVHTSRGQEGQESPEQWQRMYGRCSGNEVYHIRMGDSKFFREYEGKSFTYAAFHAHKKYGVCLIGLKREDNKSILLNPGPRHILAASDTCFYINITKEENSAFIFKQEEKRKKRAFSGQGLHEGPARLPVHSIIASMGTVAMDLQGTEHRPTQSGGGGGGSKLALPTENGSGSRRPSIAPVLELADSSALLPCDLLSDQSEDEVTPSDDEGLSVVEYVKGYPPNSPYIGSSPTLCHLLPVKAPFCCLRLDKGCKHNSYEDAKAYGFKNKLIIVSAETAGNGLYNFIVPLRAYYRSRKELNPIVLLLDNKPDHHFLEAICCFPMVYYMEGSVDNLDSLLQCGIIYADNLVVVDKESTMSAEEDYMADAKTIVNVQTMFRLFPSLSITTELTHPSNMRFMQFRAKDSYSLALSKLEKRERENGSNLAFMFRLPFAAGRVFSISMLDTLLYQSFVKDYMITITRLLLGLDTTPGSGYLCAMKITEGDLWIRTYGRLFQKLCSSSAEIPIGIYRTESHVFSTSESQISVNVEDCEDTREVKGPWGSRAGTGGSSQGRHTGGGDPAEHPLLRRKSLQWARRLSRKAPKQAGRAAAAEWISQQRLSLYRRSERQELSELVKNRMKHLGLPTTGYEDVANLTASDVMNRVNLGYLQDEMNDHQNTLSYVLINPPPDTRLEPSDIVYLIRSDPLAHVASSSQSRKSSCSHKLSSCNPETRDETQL
Assay: KCNT1 patch clamp assay (SyncroPatch 384PE automated patch clamp)
Assay type: cell-based
Settings: tetracycline inducible HEK-TREX cell line; perforated patch; step from −80 mV to 0 mV; room temperature; read-out: KCNT1-WT IC50
Protocol: KCNT1—Patch Clamp Assay Inhibition of KCNT1 (KNa1.1, Slack) was evaluated using a tetracycline inducible cell line (HEK-TREX). Currents were recorded using the SyncroPatch 384PE automated, patch clamp system. Pulse generation and data collection were performed with PatchController384 V1.3.0 and DataController384 V1.2.1 (Nanion Technologies). The access resistance and apparent membrane capacitance were estimated using built-in protocols. Current were recorded in perforated patch mode (10 μM escin) from a population of cells. […] The cells were allowed to recover in the cell hotel prior to experimentation. Currents were recorded at room temperature. […] The extracellular solution was used as the wash, reference and compound delivery solution. […] Escin is made at a 5 mM stock in water, aliquoted, and stored at −20° C. The compound plate was created at 2× concentrated in the extracellular solution. The compound was diluted to 1:2 when added to the recording well. The amount of DMSO in the extracellular solution was held constant at the level used for the highest tested concentration. A holding potential of −80 mV with a 100 ms step to 0 mV was used. […] The average mean current from 3 sweeps was calculated and the % inhibition of each compound was calculated. The % Inhibition as a function of the compound concentration was fit with a Hill equation to derive IC50, slope, min and max parameters.

Work on `C[C@H](NC(=O)c1cc(C(F)F)nn1C)c1nc(-c2ccnc(C3CC3)c2)no1` [Compound 229, (S)—N-(1-(3-(2-cyclopropylpyridin-4-yl)-1,2,4-oxadiazol-5-yl)ethyl)-3-(difluoromethyl)-1-methyl-1H-pyrazole-5-carboxamide] yielded an IC50 of no more than 1000 nM.

In the case of `C[C@@H](NC(=O)c1cc(C2CC2)nn1C)c1nc(-c2cccc(F)c2)no1` (single isomer, unassigned) [Compound 93], the IC50 is reported as 1000 to 20000 nM.

For `CC(C)Oc1cc(-c2noc([C@H](C)NC(=O)OC(C)(C)C)n2)ccn1` [Compound 286, tert-butyl (S)-(1-(3-(2-isopropoxypyridin-4-yl)-1,2,4-oxadiazol-5-yl)ethyl)carbamate], the IC50 was no more than 1000 nM.

For `CC(C)c1cc(-c2noc([C@H](C)NC(=O)c3cc(C(F)(F)F)nn3C)n2)ccn1` [Compound 269, (S)—N-(1-(3-(2-isopropylpyridin-4-yl)-1,2,4-oxadiazol-5-yl)ethyl)-1-methyl-3-(trifluoromethyl)-1H-pyrazole-5-carboxamide], the IC50 was no more than 1000 nM.

In the case of `CCc1cc(-c2noc([C@H](C)NC(=O)c3cc(C(F)(F)F)nn3C)n2)ccn1` [Compound 268, (S)—N-(1-(3-(2-ethylpyridin-4-yl)-1,2,4-oxadiazol-5-yl)ethyl)-1-methyl-3-(trifluoromethyl)-1H-pyrazole-5-carboxamide], the IC50 is reported as no more than 1000 nM.

For `Cn1nc(C(F)(F)F)cc1C(=O)NC(CS(C)(=O)=O)c1nc(-c2cccc(F)c2)no1` (stereo not drawn) [Compound 171], the IC50 was 1000 to 20000 nM.

`C[C@H](NC(=O)OC1CCCC1)c1nc(-c2ccnc(C3CC3)c2)no1` [Compound 276] gave an IC50 of no more than 1000 nM.

`CC(C)C(NC(=O)c1cc(C2CC2)nn1C)c1nc(-c2cccc(F)c2)no1` (stereo not drawn) [Compound 45] was tested, and the IC50 was no more than 1000 nM.

`CC(NC(=O)c1cc(C2CC2)nn1C)c1nc(-c2cccc(F)c2)no1` (stereo not drawn) [Compound 5] gave an IC50 of no more than 1000 nM.

With `CC(NC(=O)c1cc(C2CC2)nn1C)c1nc(-c2cccc(C(F)(F)F)c2)no1` (stereo not drawn) [Compound 12] the IC50 was no more than 1000 nM.

`CC[C@H](NC(=O)OC(C)(C)C)c1nc(-c2ccnc(C3CC3)c2)no1` [Compound 247, tert-butyl (S)-(1-(3-(2-cyclopropylpyridin-4-yl)-1,2,4-oxadiazol-5-yl)propyl)carbamate] gave an IC50 of no more than 1000 nM.

Molecule `C[C@H](NC(=O)c1cn(C)nc1C(C)(C)C)c1nc(-c2cccc(F)c2)no1` [Compound 162] has an IC50 of 1000 to 20000 nM.

For `Cn1nc(C2CC2)cc1C(=O)NC(CO)c1nc(-c2cccc(F)c2)no1` (stereo not drawn) [Compound 54], the IC50 was no less than 20000 nM.

In the case of `CC(NC(=O)c1cc(C(F)(F)F)nn1C)c1nc(-c2cc(F)cc(F)c2)no1` (stereo not drawn) [Compound 103], the IC50 is reported as no more than 1000 nM.

In the case of `Cn1nc(C2CC2)cc1C(=O)NC(c1ccccc1)c1nc(-c2cccc(F)c2)no1` (stereo not drawn) [Compound 51], the IC50 is reported as 1000 to 20000 nM.

`C[C@H](NC(=O)c1cc(C(F)(F)F)nn1C)c1nc(-c2ccnc(N3CCCCC3)c2)no1` (single isomer, unassigned) [Compound 209] showed an IC50 of no more than 1000 nM.

`C[C@H](NC(=O)c1cc(C(F)(F)F)nn1C)c1nc(-c2ccnc(COC3CC3)c2)no1` [Compound 254, (S)—N-(1-(3-(2-(cyclopropoxymethyl)pyridin-4-yl)-1,2,4-oxadiazol-5-yl)ethyl)-1-methyl-3-(trifluoromethyl)-1H-pyrazole-5-carboxamide] showed an IC50 of 1000 to 20000 nM.

`C[C@H](NC(=O)c1ccnn1CC1CC1)c1nc(-c2ccnc(C3CCCC3)c2)no1` [Compound 309, (S)—N-(1-(3-(2-cyclopentylpyridin-4-yl)-1,2,4-oxadiazol-5-yl)ethyl)-1-(cyclopropylmethyl)-1H-pyrazole-5-carboxamide] was tested, and the IC50 was no more than 1000 nM.

`Cc1cccc(-c2noc(C(C)NC(=O)c3cc(C)nn3C(F)F)n2)c1` (stereo not drawn) [Compound 33] gave an IC50 of no more than 1000 nM.

Molecule `Cc1cccc(-c2noc(C(C)NC(=O)c3cc(C(C)(C)C)nn3C)n2)c1` (stereo not drawn) [Compound 13] has an IC50 of no more than 1000 nM.

`C[C@H](NC(=O)c1cc(C(F)(F)F)nn1C)c1nc(-c2ccnc(C(F)(F)F)n2)no1` [Compound 242, (S)-1-methyl-3-(trifluoromethyl)-N-(1-(3-(2-(trifluoromethyl)pyrimidin-4-yl)-1,2,4-oxadiazol-5-yl)ethyl)-1H-pyrazole-5-carboxamide] gave an IC50 of 1000 to 20000 nM.

`Cc1cccc(-c2noc([C@H](C)NC(=O)c3cn(C(C)C)nc3C)n2)c1` [Compound 233] showed an IC50 of no more than 1000 nM.

In the case of `COC(=O)c1cccc(-c2noc(C(C)NC(=O)c3cc(C(F)(F)F)nn3C)n2)c1` (stereo not drawn) [Compound 181, methyl 3-(5-(1-(1-methyl-3-(trifluoromethyl)-1H-pyrazole-5-carboxamido)ethyl)-1,2,4-oxadiazol-3-yl)benzoate], the IC50 is reported as no more than 1000 nM.

With `C[C@H](NC(=O)c1cc(C(F)(F)F)nn1C)c1nc(-c2ccnc(C3CCC3)c2)no1` (single isomer, unassigned) [Compound 278] the IC50 was no more than 1000 nM.

`Cn1nc(C(F)(F)F)cc1C(=O)NCc1nc(-c2ccnc(C(F)(F)F)c2)no1` [Compound 300, 2-methyl-5-(trifluoromethyl)-N-[[3-[2-(trifluoromethyl)-4-pyridyl]-1,2,4-oxadiazol-5-yl]methyl]pyrazole-3-carboxamide] showed an IC50 of no more than 1000 nM.

Work on `C[C@H](NC(=O)c1cc(C(F)(F)F)nn1C)c1nc(-c2ccnc(CS(C)(=O)=O)c2)no1` [Compound 264, 2-methyl-N-[(1S)-1-[3-[2-(methylsulfonylmethyl)-4-pyridyl]-1,2,4-oxadiazol-5-yl]ethyl]-5-(trifluoromethyl)pyrazole-3-carboxamide] yielded an IC50 of no less than 20000 nM.

Molecule `C[C@H](NC(=O)c1cc(C(F)F)nn1C)c1nc(-c2ccnc(C(F)(F)F)c2)no1` [Compound 238] has an IC50 of no more than 1000 nM.

For `C[C@H](NC(=O)c1cn(C)nc1C1CCOCC1)c1nc(-c2cccc(F)c2)no1` [Compound 166], the IC50 was 1000 to 20000 nM.

In the case of `Cc1nn(C(C)C)cc1C(=O)N[C@@H](C)c1nc(-c2ccc(Cl)c(F)c2)no1` [Compound 86], the IC50 is reported as no more than 1000 nM.

`CC[C@H](NC(=O)c1cc(C(F)(F)F)nn1C)c1nc(-c2ccnc(C)c2)no1` [Compound 199, (S)-1-methyl-N-(1-(3-(2-methylpyridin-4-yl)-1,2,4-oxadiazol-5-yl)propyl)-3-(trifluoromethyl)-1H-pyrazole-5-carboxamide] gave an IC50 of no more than 1000 nM.

`Cn1nc(C2CC2)cc1C(=O)NC(Cc1ccccc1)c1nc(-c2cccc(F)c2)no1` (stereo not drawn) [Compound 49] showed an IC50 of 1000 to 20000 nM.

Molecule `CO[C@@H](C)[C@@H](NC(=O)c1cc(C(F)(F)F)nn1C)c1nc(-c2cccc(F)c2)no1` [Compound 138] has an IC50 of no more than 1000 nM.

`C[C@H](NC(=O)c1cc(C(F)(F)F)nn1CC(=O)N(C)C)c1nc(-c2ccnc(C3CC3)c2)no1` [Compound 230, (S)—N-(1-(3-(2-cyclopropylpyridin-4-yl)-1,2,4-oxadiazol-5-yl)ethyl)-1-(2-(dimethylamino)-2-oxoethyl)-3-(trifluoromethyl)-1H-pyrazole-5-carboxamide] showed an IC50 of no more than 1000 nM.

`COC[C@@H](NC(=O)c1cc(C(F)(F)F)nn1C)c1nc(-c2cccc(C)c2)no1` (single isomer, unassigned) [Compound 80] showed an IC50 of no more than 1000 nM.

`CCOc1cc(-c2noc([C@H](C)NC(=O)OC(C)(C)C)n2)ccn1` [Compound 290, tert-butyl (S)-(1-(3-(2-ethoxypyridin-4-yl)-1,2,4-oxadiazol-5-yl)ethyl)carbamate] gave an IC50 of no more than 1000 nM.

Molecule `C[C@H](NC(=O)OC(C)(C)C)c1nc(-c2ccnc(C3(C)CC3)c2)no1` [Compound 272, tert-butyl (S)-(1-(3-(2-(1-methylcyclopropyl)pyridin-4-yl)-1,2,4-oxadiazol-5-yl)ethyl)carbamate] has an IC50 of 1000 to 20000 nM.

From US20220259193A1, “KCNT1 INHIBITORS AND METHODS OF USE” (Praxis Precision Medicines, Inc., priority 2019, published 2022)
